Test results reported in BindingDB's records for doi:10.1016/0960-894X(95)00037-T (1995).

Columns and labels:
B2 bradykinin receptor [1] = target: T1, B2 bradykinin receptor (Homo sapiens, UniProt P30411); assay: ChEBML_40431
T1 sequence (P30411 whole entry): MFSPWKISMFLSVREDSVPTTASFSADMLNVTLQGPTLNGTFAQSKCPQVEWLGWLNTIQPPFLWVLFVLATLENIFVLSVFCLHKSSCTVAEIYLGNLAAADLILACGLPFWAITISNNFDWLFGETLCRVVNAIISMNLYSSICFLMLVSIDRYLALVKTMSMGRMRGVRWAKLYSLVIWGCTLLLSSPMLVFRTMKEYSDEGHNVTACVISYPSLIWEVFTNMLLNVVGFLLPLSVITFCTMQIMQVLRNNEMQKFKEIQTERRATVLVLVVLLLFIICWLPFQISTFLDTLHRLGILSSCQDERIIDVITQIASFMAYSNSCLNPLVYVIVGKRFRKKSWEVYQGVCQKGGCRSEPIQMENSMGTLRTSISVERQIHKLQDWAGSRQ
Excerpt: (§1) Tested for binding affinity against human IMR-90 Bradykinin receptor B2

B2 bradykinin receptor [2] = target: T1, B2 bradykinin receptor; assay: as §1

- Ki (B2 bradykinin receptor [1]): 1 µM
- Ki (B2 bradykinin receptor [2]): 1 µM
Structure (SMILES): CCCC[P+](CCCC)(CCCC)Cc1ccc(NC(=O)C2Cc3ccccc3CN2C(=O)[C@H](CCc2ccccc2)N/C(=N/C2CCCCC2)NC2CCCCC2)cc1 (stereo partly drawn) [tributyl[(4-{2-[(2S)-2-{[(1E)-(cyclohexylamino)(cyclohexyliminiumyl)methyl]amino}-4-phenylbutanoyl]-1,2,3,4-tetrahydroisoquinoline-3-amido}phenyl)methyl]phosphanium dichloride]
